In patent publication US20030165447A1, “Topical leave-on compositions containing pantothenic acid and its derivatives to reduce the need for underarm shaving” (The Procter & Gamble Company, priority 2001, published 2003):

Test: Acid or hold stability of sample compositions held at 85° C. for 24 hours
Format: physicochemical
Conditions: heated liquid held at 85° C., 24 hour period; 3.00% pantothenic acid derivative with 25.25% aluminum zirconium trichlorohydrate
Procedure: The topical leave-on compositions of the present invention are evaluated to determine the relative acid or hold stability of selected pantothenic acid derivatives as defined herein (e.g., ethyl panthenol, panthenyl triacetate) relative to other pantothenic acid derivatives (e.g., panthenol, calcium pantothenate). In this context, acid or hold stability is found to correlate with the lack of visibly apparent crystal formation within or extending from the sample product or by the lack of any significant off-odor development, over a 24 hours period at an elevated hold temperature of 85° C.
Each sample composition is formulated with the above-described ingredients and then held at 85° C. as a heated liquid for a 24 hour period and evaluated during that that period of time for any visibly apparent crystal formations within or extending from the formulation, and for any off-odor development. The evaluated product is maintained in the heated liquid state at 85° C. during the evaluation period to assimilate the elevated processing or hold temperatures often associated with the making of such antiperspirant and deodorant products, and to assimilate those conditions that favor acid-degradation of pantothenic acid derivatives as described herein.

| Structure (SMILES) | Off-odor formation | Visible crystal formation |
| --- | --- | --- |
| CCOCCCNC(=O)[C@H](O)C(C)(C)CO [ethyl panthenol] | little or no off-odor development | do not exhibit the undesirable crystal formation |
| CC(=O)OCCCNC(=O)[C@H](OC(C)=O)C(C)(C)COC(C)=O [panthenyl triacetate] | little or no off-odor development | do not exhibit the undesirable crystal formation |
